Measured values published in patent publication US9586952B2, “Polycyclic estrogen receptor modulators and uses thereof” (SERAGON PHARMACEUTICALS, INC., priority 2013, dated 2017).

What was measured:
ER-α = target: T1, ER-α (Homo sapiens, UniProt P03372); test: Breast Cancer Cell ER-α In Cell Western Assay (SP1); type: cell-based; details: MCF-7 cells, 4 or 24 hr post compound addition, SP1 antibody; for Emax: MCF7, read-out: ER-α In Cell Western Assay (SP1) Max Response; for DC50: read-out: ER-α In Cell Western Assay (SP1) IC50
T1 construct: endogenous in cells; host or cells: MCF-7
T1 sequence (P03372 1-595): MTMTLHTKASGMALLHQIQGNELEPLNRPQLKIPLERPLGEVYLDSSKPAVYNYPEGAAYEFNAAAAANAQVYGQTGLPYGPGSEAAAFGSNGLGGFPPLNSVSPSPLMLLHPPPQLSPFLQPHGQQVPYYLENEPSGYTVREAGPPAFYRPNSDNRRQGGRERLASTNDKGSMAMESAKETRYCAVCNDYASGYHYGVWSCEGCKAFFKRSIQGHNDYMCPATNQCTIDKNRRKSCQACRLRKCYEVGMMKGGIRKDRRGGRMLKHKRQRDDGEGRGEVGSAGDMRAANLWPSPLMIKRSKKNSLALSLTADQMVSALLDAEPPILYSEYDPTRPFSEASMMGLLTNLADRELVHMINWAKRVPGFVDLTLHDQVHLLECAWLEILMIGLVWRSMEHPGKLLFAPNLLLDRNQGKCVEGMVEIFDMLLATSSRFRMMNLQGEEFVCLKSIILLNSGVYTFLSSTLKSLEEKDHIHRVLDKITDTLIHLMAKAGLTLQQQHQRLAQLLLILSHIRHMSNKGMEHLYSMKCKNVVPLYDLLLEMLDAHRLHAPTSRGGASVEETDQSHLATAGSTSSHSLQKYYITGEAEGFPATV
Procedure: MCF-7 cells were adjusted to a concentration of 200,000 cells per mL in RPMI containing 10% charcoal-stripped FBS and 20 mM HEPES. 16 microliters of the cell suspension (3200 cells) was added to each well of a poly-D-lysine 384 well plate, and the cells were incubated overnight to allow the cells to adhere. The following day an eleven point, serial semilog dilution of each compound was added to the cells in 16 μL at a final concentration ranging from 0.3-0.000003 μM. At 4 or 24 hr post compound addition, the cells were fixed (10% formalin in PBS) for 20 minutes. Cells were permeablized in PBS 0.1% Triton and blocked with LICOR blocking buffer (50 μl/well, 90′). The wells were then incubated overnight at 4° C. with SP1 rabbit monoclonal Ab (Thermo Scientific) diluted 1:1000 in LICOR blocking buffer/0.1% Tween-20. Wells which were treated with blocking buffer with Tween but no antibody were used as a background control. Wells were washed with 0.1% Tween-20/PBS and then incubated in goat anti-rabbit IRDye™ 800 CW (LICOR Inc.; 1:10000) and DRAQ5 DNA dye (1:2000 for 2 mM stock) diluted in LICOR blocking buffer containing 0.1% Tween-20 and 0.01% SDS for 60 minutes. Cells were washed (50 μl/well, 5′ each) in 0.1% Tween-20/PBS. Plates were scanned on a LICOR Odyssey infrared imaging system. Integrated intensities in the 800 nm channel and 700 nm channel were measured to determine levels of ER and DNA respectively. Percent ER levels were determined as follows: (Integrated intensity 800 nm sample/integrated intensity 700 nm sample)/(Integrated intensity 800 nm untreated cells/integrated intensity 700 nm untreated cells)×100=% ER levels.

MCF-7 cells = test: MCF7 Viability Assay (Breast Cancer Cell Viability Assay); type: cell-based; details: 5 days' compound exposure, CellTiter-Glo; for IC50: Homo sapiens, MCF7, 120 h
Procedure: MCF-7 cells were adjusted to a concentration of 20,000 cells per mL in RPMI containing 10% FBS and 20 mM HEPES. 16 microliters of the cell suspension (320 cells) was added to each well of a 384 well plate, and the cells were incubated overnight to allow the cells to adhere. The following day an eleven point, serial semilog dilution of each compound was added to the cells in 16 μL at a final concentration ranging from 0.3-0.000003 μM. After 5 days' compound exposure, 16 μL of CellTiter-GLo (Promega, Madison Wis.) was added to the cells, and the relative luminescence units (RLUs) of each well were determined. CellTiter-Glo added to 32 μL of medium without cells was used to obtain a background value. The Percent viability of each sample was determined as follows: (RLU sample-RLU background/RLU untreated cells-RLU background)×100=% viability.

| Structure (SMILES) | Emax (ER-α) | DC50 (ER-α) | MCF7 Viability Assay Max Response (MCF-7 cells) | IC50 (MCF-7 cells) |
| --- | --- | --- | --- | --- |
| COc1ccc(/C(=C(\c2ccc(/C=C/C(=O)O)cc2)c2ccc(N3CCOCC3)cc2)C2CCC2)c(C)c1 [Example 47, (E)-3-(4-((E)-2-Cyclobutyl-2-(4-methoxy-2-methylphenyl)-1-(4-morpholinophenyl)vinyl)phenyl)acrylic acid] | ≥ 40% | ≤ 100 nM | ++ (++ = a single % value ≧ 40%) | ≤ 100 nM |
| O=C(O)/C=C/c1ccc(/C(=C(\c2ncccc2Cl)C2CCC2)c2ccc(-c3cn[nH]c3)cc2)cc1 [Example 42, (E)-3-(4-((E)-1-(4-(1H-Pyrazol-4-yl)phenyl)-2-(3-chloropyridin-2-yl)-2-cyclobutylvinyl)phenyl)acrylic acid] | ≥ 40% | ≤ 100 nM | ++ (++ = a single % value ≧ 40%) | ≤ 100 nM |
| O=C(O)/C=C/c1ccc(/C(=C(\c2ccc(F)cc2Cl)C2CCC2)c2ccc(-c3cncs3)cc2)cc1 [Example 33, (E)-3-(4-((E)-2-(2-Chloro-4-fluorophenyl)-2-cyclobutyl-1-(4-(thiazol-5-yl)phenyl)vinyl)phenyl)acrylic acid] | ≥ 40% | ≤ 100 nM | ++ (++ = a single % value ≧ 40%) | ≤ 100 nM |
| Cc1cscc1/C(=C(\c1ccc(/C=C/C(=O)O)cc1)c1ccc(-c2cncs2)cc1)C1CCC1 [Example 35, (E)-3-(4-((E)-2-Cyclobutyl-2-(4-methylthiophen-3-yl)-1-(4-(thiazol-5-yl)phenyl)vinyl)phenyl)acrylic acid] | ≥ 40% | ≤ 100 nM | ++ (++ = a single % value ≧ 40%) | ≤ 100 nM |
| Fc1ccc(/C(=C(\c2ccc(/C=C/c3nn[nH]n3)cc2)c2ccc(-c3cn[nH]c3)cc2)C2CCC2)c(Cl)c1 [Example 71, 5-((E)-4-((E)-1-(4-(1H-Pyrazol-4-yl)phenyl)-2-(2-chloro-4-fluorophenyl)-2-cyclobutylvinyl)styryl)-2H-tetrazole] | ≥ 40% | ≤ 100 nM | ++ (++ = a single % value ≧ 40%) | ≤ 100 nM |
| O=C(O)/C=C/c1ccc(/C(=C(\c2ccccc2)C2CCC2)c2cccc(-c3cn[nH]c3)c2)cc1 [Example 26, (E)-3-(4-((E)-1-(3-(1H-Pyrazol-4-yl)phenyl)-2-cyclobutyl-2-phenylvinyl)phenyl)acrylic acid] | ≥ 40% | > 100 nM | + (+ = a single % value < 40%) | > 100 nM |
| Cc1cscc1/C(=C(\c1ccc(/C=C/C(=O)O)cc1)c1ccc(-c2cn[nH]c2)cc1)C1CCC1 [Example 38, (E)-3-(4-((E)-1-(4-(1H-Pyrazol-4-yl)phenyl)-2-cyclobutyl-2-(4-methylthiophen-3-yl)vinyl)phenyl)acrylic acid] | ≥ 40% | ≤ 100 nM | ++ (++ = a single % value ≧ 40%) | ≤ 100 nM |
| COc1ccc(/C(=C(\c2ccc(/C=C/C(=O)O)cc2)c2ccc(-c3cncs3)cc2)C2CCC2)c(Cl)c1 [Example 53, (E)-3-(4-((E)-2-(2-Chloro-4-methoxyphenyl)-2-cyclobutyl-1-(4-(thiazol-5-yl)phenyl)vinyl)phenyl)acrylic acid] | ≥ 40% | ≤ 100 nM | ++ (++ = a single % value ≧ 40%) | ≤ 100 nM |
| CC/C(=C(/c1ccc(/C=C/C(=O)O)cc1)c1ccc(-c2cncs2)cc1)c1cccc(OC)c1 [Example 30, (E)-3-(4-((E)-2-(3-Methoxyphenyl)-1-(4-(thiazol-5-yl)phenyl)but-1-en-1-yl)phenyl)acrylic acid] | ≥ 40% | ≤ 100 nM | ++ (++ = a single % value ≧ 40%) | ≤ 100 nM |
| O=C(O)/C=C/c1ccc(/C(=C(\c2ccc(F)cc2Cl)C2CCC2)c2ccc(-c3cn[nH]c3)cc2)cc1 [Example 37, (E)-3-(4-((E)-1-(4-(1H-Pyrazol-4-yl)phenyl)-2-(2-chloro-4-fluorophenyl)-2-cyclobutylvinyl)phenyl)acrylic acid] | ≥ 40% | ≤ 100 nM | ++ (++ = a single % value ≧ 40%) | ≤ 100 nM |
| O=C(O)/C=C/c1ccc(/C(=C(\c2ncccc2Cl)C2CCC2)c2ccc(N3CCOCC3)cc2)cc1 [Example 43, (E)-3-(4-((E)-2-(3-Chloropyridin-2-yl)-2-cyclobutyl-1-(4-morpholinophenyl)vinyl)phenyl)acrylic acid] | ≥ 40% | ≤ 100 nM | ++ (++ = a single % value ≧ 40%) | ≤ 100 nM |
| N#Cc1ccc(/C(=C(\c2ccc(/C=C/C(=O)O)cc2)c2ccc(-c3cn[nH]c3)cc2)C2CCC2)c(Cl)c1 [Example 3, (E)-3-(4-((E)-1-(4-(1H-Pyrazol-4-yl)phenyl)-2-(2-chloro-4-cyanophenyl)-2-cyclobutylvinyl)phenyl) acrylic acid] | ≥ 40% | ≤ 100 nM | ++ (++ = a single % value ≧ 40%) | ≤ 100 nM |
| O=C(O)/C=C/c1ccc(/C(=C(\c2ccccc2)C2CCC2)c2ccc(-c3cncs3)cn2)cc1 [Example 25, (E)-3-(4-((E)-2-Cyclobutyl-2-phenyl-1-(5-(thiazol-5-yl)pyridin-2-yl)vinyl)phenyl)acrylic acid] | ≥ 40% | > 100 nM | ++ (++ = a single % value ≧ 40%) | > 100 nM |
| O=C(O)/C=C/c1ccc(/C(=C(\c2ccc(C(F)(F)F)cc2Cl)C2CCC2)c2ccc(-c3cn[nH]c3)cc2)cc1 [Example 55, (E)-3-(4-((E)-1-(4-(1H-Pyrazol-4-yl)phenyl)-2-(2-chloro-4-(trifluoromethyl)phenyl)-2-cyclobutylvinyl)phenyl)acrylic acid] | ≥ 40% | ≤ 100 nM | ++ (++ = a single % value ≧ 40%) | ≤ 100 nM |
| CC/C(=C(/c1ccc(/C=C/C(=O)O)cc1)c1ccc(-c2cn[nH]c2)cc1)c1ccccc1 [Example 22, (E)-3-(4-((E)-1-(4-(1H-Pyrazol-4-yl)phenyl)-2-phenylbut-1-en-1-yl)phenyl)acrylic acid] | ≥ 40% | ≤ 100 nM | ++ (++ = a single % value ≧ 40%) | ≤ 100 nM |
| CC/C(=C(/c1ccc(/C=C/C(=O)O)cc1)c1ccc(-c2cncs2)cc1)c1ccc(F)cc1Cl [Example 2, (E)-3-(4-((E)-2-(2-Chloro-4-fluorophenyl)-1-(4-(thiazol-5-yl)phenyl)but-1-en-1-yl)phenyl)acrylic acid] | ≥ 40% | ≤ 100 nM | ++ (++ = a single % value ≧ 40%) | ≤ 100 nM |
| CC/C(=C(/c1ccc(/C=C/C(=O)O)cc1)c1ccc(-c2cncs2)cc1)c1cscc1C [Example 32, (E)-3-(4-((E)-2-(4-Methylthiophen-3-yl)-1-(4-(thiazol-5-yl)phenyl)but-1-en-1-yl)phenyl)acrylic acid] | ≥ 40% | ≤ 100 nM | ++ (++ = a single % value ≧ 40%) | ≤ 100 nM |
